Data taken from US20250114460A1, “NOVEL PLK1 DEGRADATION INDUCING COMPOUND” (UPPTHERA, INC., priority 2021, published 2025).

Assays:
[1] = target: T1, PLK1 (Homo sapiens, UniProt P53350); test: Luciferase assay for PLK1 in HeLa LgBit (Plk1-HiBit KI) cell line; format: cell-based; settings: 300 nM compound, luminescence after 9 hours
T1 construct: endogenous in cells; host or cells: HeLa LgBit (Plk1-HiBit KI): HeLa stably expressing LgBit, with a CRISPR/Cas9 knock-in of HiBit at the endogenous PLK1 locus
In short: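 Luminescence, followed in real time after adding compound at 300 nM and Endurazine substrate, is reported relative to DMSO-treated wells. Cells are a HeLa LgBit line with a Plk1-HiBit knock-in, synchronized by 2 mM thymidine for 24 h, released, and cultured 18 h before treatment.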

[2] = test system: NCI-H526 cell line; test: Cell viability assay for H526 cell (EZ-Cytox); format: cell-based; settings: Homo sapiens, NCI-H526, 120 h; H526 cells, 5 days, 3000 nM to 0.46 nM
Procedure: (1) Culture of NCI-H526 Cell Line
(2) Treatment of Compounds of the Present Invention and Method of Cell Viability Assay
After treating the compound to each well to make the total volume of 200 μL, it was cultured in a CO2 incubator (Thermo Fisher Science, Cat. No. 4111) for 5 days.
The absorbance of the completely cultured sample was measured by setting the wavelength of a plate reader (BMG Labtech, CLARIOstar Plus) to […], and was measured after shaking for 3 minutes in a plate reader before measurement.
In Table 3, Activity represents IC50 value of each Exemplary Compound treatment group to H526 cell line (A: <30 nM, B: <50 nM, C: <100 nM, D: <200 nM, E: <400 nM).

T1 sequence (P53350 whole entry): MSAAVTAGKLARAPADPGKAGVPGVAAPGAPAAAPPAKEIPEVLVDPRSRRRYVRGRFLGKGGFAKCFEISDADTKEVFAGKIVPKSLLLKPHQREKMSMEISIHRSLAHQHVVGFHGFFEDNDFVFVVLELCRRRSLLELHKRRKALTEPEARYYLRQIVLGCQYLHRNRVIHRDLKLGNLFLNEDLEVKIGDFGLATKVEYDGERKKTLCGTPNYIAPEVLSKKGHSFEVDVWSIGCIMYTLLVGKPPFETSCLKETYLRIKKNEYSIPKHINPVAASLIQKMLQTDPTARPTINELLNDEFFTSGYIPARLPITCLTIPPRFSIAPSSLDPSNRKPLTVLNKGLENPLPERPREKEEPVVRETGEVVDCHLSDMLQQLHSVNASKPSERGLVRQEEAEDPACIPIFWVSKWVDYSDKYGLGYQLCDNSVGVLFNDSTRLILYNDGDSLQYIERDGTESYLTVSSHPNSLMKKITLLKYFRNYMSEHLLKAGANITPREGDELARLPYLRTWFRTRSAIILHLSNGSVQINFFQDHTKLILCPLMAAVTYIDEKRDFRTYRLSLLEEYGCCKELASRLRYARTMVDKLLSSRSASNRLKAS

SMILES | Activity: ratio of the luminescense value of each Exemplary Compound treatment group to DMSO treatment group [1] | IC50 [2]
COc1cc(C(=O)NCCCOCCCOCCOc2cccc3c2CN(C2CCC(=O)NC2=O)C3=O)ccc1Nc1ncc2c(n1)N(C1CCCC1)CC(F)(F)C(=O)N2C (stereo not shown) [Compound 20, 4-((9-cyclopentyl-7,7-difluoro-5-methyl-6-oxo-6,7,8,9-tetrahydro-5H-pyrimido[4,5-b][1,4]diazepin-2-yl)amino)-N-(3-(3-(2-((2-(2,6-dioxopiperidin-3-yl)-1-oxoisoindolin-4-yl)oxy)ethoxy)propoxy)propyl)-3-methoxybenzamide] | ++ (++<0.6) | < 200 nM
COc1cc(C(=O)NC2CCN(C(=O)CCCNc3cccc4c3C(=O)N(C3CCC(=O)NC3=O)C4=O)CC2)c(F)cc1Nc1ncc2c(n1)N(C(C)C)CC(F)(F)C(=O)N2C (stereo not shown) [Compound 33, 4-((7,7-difluoro-9-isopropyl-5-methyl-6-oxo-6,7,8,9-tetrahydro-5H-pyrimido[4,5-b][1,4]diazepin-2-yl)amino)-N-(1-(4-((2-(2,6-dioxopiperidin-3-yl)-1,3-dioxoisoindolin-4-yl)amino)butanoyl)piperidin-4-yl)-2-fluoro-5-methoxybenzamide] | ++ (++<0.6) | < 200 nM
COc1cc(C(=O)N2CCC(CCN3CCN(c4cccc5c4C(=O)N(C4CCC(=O)NC4=O)C5=O)CC3)CC2)ccc1Nc1ncc2c(n1)N(C1CCCC1)CC(F)(F)C(=O)N2C (stereo not shown) [Compound 94, 4-(4-(2-(1-(4-((9-cyclopentyl-7,7-difluoro-5-methyl-6-oxo-6,7,8,9-tetrahydro-5H-pyrimido[4,5-b][1,4]diazepin-2-yl)amino)-3-methoxybenzoyl)piperidin-4-yl)ethyl)piperazin-1-yl)-2-(2,6-dioxopiperidin-3-yl)isoindoline-1,3-dione] | ++ (++<0.6) | < 400 nM
COc1cc(N2CCC(CN3CCN(c4cccc5c4C(=O)N(C4CCC(=O)NC4=O)C5=O)CC3)CC2)c(F)cc1Nc1ncc2c(n1)N(C1CCCC1)CC(F)(F)C(=O)N2C (stereo not shown) [Compound 103, 4-(4-((1-(4-((9-cyclopentyl-7,7-difluoro-5-methyl-6-oxo-6,7,8,9-tetrahydro-5H-pyrimido[4,5-b][1,4]diazepin-2-yl)amino)-2-fluoro-5-methoxyphenyl)piperidin-4-yl)methyl)piperazin-1-yl)-2-(2,6-dioxopiperidin-3-yl)isoindoline-1,3-dione] | ++ (++<0.6) | < 200 nM
COc1cc(C(=O)N2CCN(CCN3CCN(c4cccc5c4C(=O)N(C4CCC(=O)NC4=O)C5=O)CC3)CC2)ccc1Nc1ncc2c(n1)N(C1CCCC1)CC(F)(F)C(=O)N2C (stereo not shown) [Compound 86, 4-(4-(2-(4-(4-((9-cyclopentyl-7,7-difluoro-5-methyl-6-oxo-6,7,8,9-tetrahydro-5H-pyrimido[4,5-b][1,4]diazepin-2-yl)amino)-3-methoxybenzoyl)piperazin-1-yl)ethyl)piperazin-1-yl)-2-(2,6-dioxopiperidin-3-yl)isoindoline-1,3-dione] | ++ (++<0.6) | < 400 nM
COc1cc(C(=O)NC2CCCN(C(=O)CN3CCN(c4cccc5c4C(=O)N(C4CCC(=O)NC4=O)C5=O)CC3)C2)ccc1Nc1ncc2c(n1)N(C1CCCC1)CC(F)(F)C(=O)N2C (stereo not shown) [Compound 122, 4-((9-cyclopentyl-7,7-difluoro-5-methyl-6-oxo-6,7,8,9-tetrahydro-5H-pyrimido[4,5-b][1,4]diazepin-2-yl)amino)-N-(1-(2-(4-(2-(2,6-dioxopiperidin-3-yl)-1,3-dioxoisoindolin-4-yl)piperazin-1-yl)acetyl)piperidin-3-yl)-3-methoxybenzamide] | +++ (+++: <0.3) | < 30 nM
COc1cc(C(=O)NC2CCN(CCOc3cccc4c3C(=O)N(C3CCC(=O)NC3=O)C4=O)CC2)c(F)cc1Nc1ncc2c(n1)N(C1CCCC1)CC(F)(F)C(=O)N2C (stereo not shown) [Compound 2, 4-((9-cyclopentyl-7,7-difluoro-5-methyl-6-oxo-6,7,8,9-tetrahydro-5H-pyrimido[4,5-b][1,4]diazepin-2-yl)amino)-N-(1-(2-((2-(2,6-dioxopiperidin-3-yl)-1,3-dioxoisoindolin-4-yl)oxy)ethyl)piperidin-4-yl)-2-fluoro-5-methoxybenzamide] | ++ (++<0.6) | < 200 nM
COc1cc(C(=O)N2CCN(CCCN3CCN(c4cccc5c4C(=O)N(C4CCC(=O)NC4=O)C5=O)CC3)CC2)ccc1Nc1ncc2c(n1)N(C1CCCC1)CC(F)(F)C(=O)N2C (stereo not shown) [Compound 87, 4-(4-(3-(4-(4-((9-cyclopentyl-7,7-difluoro-5-methyl-6-oxo-6,7,8,9-tetrahydro-5H-pyrimido[4,5-b][1,4]diazepin-2-yl)amino)-3-methoxybenzoyl)piperazin-1-yl)propyl)piperazin-1-yl)-2-(2,6-dioxopiperidin-3-yl)isoindoline-1,3-dione] | ++ (++<0.6) | 
COc1cc(C(=O)N2CCC(CN3CCN(c4cc5c(cc4F)C(=O)N(C4CCC(=O)NC4=O)C5=O)CC3)CC2)ccc1Nc1ncc2c(n1)N(C1CCCC1)CC(F)(F)C(=O)N2C (stereo not shown) [Compound 101, 5-(4-((1-(4-((9-cyclopentyl-7,7-difluoro-5-methyl-6-oxo-6,7,8,9-tetrahydro-5H-pyrimido[4,5-b][1,4]diazepin-2-yl)amino)-3-methoxybenzoyl)piperidin-4-yl)methyl)piperazin-1-yl)-2-(2,6-dioxopiperidin-3-yl)-6-fluoroisoindoline-1,3-dione] | ++ (++<0.6) | 

Second part, led by results:

Activity: ratio of the luminescense value of each Exemplary Compound treatment group to DMSO treatment group [1] | SMILES | IC50 [2]
+++ (+++: <0.3) | COc1cc(C(=O)N[C@@H]2CCCN(C(=O)CN3CCN(c4cccc5c4C(=O)N(C4CCC(=O)NC4=O)C5=O)CC3)C2)ccc1Nc1ncc2c(n1)N(C1CCCC1)CC(F)(F)C(=O)N2C (stereo partly drawn) [Compound 146, 4-((9-cyclopentyl-7,7-difluoro-5-methyl-6-oxo-6,7,8,9-tetrahydro-5H-pyrimido[4,5-b][1,4]diazepin-2-yl)amino)-N-((3R)-1-(2-(4-(2-(2,6-dioxopiperidin-3-yl)-1,3-dioxoisoindolin-4-yl)piperazin-1-yl)acetyl)piperidin-3-yl)-3-methoxybenzamide] | < 50 nM
+ (+<0.7) | COc1cc(C(=O)NC2CCN(C(=O)[C@@H]3C[C@H](Nc4cccc5c4C(=O)N(C4CCC(=O)NC4=O)C5=O)CN3)CC2)c(F)cc1Nc1ncc2c(n1)N(C1CCCC1)CC(F)(F)C(=O)N2C (stereo partly drawn) [Compound 206, 4-((9-cyclopentyl-7,7-difluoro-5-methyl-6-oxo-6,7,8,9-tetrahydro-5H-pyrimido[4,5-b][1,4]diazepin-2-yl)amino)-N-(1-((2S,4S)-4-((2-(2,6-dioxopiperidin-3-yl)-1,3-dioxoisoindolin-4-yl)amino)pyrrolidine-2-carbonyl)piperidin-4-yl)-2-fluoro-5-methoxybenzamide] | 
++ (++<0.6) | COc1cc(C(=O)NCCOCCOCCOCCOCCOCCNc2cccc3c2C(=O)N(C2CCC(=O)NC2=O)C3=O)c(N2CCN(C)CC2)cc1Nc1ncc2c(n1)N(C1CCCC1)CC(F)(F)C(=O)N2C (stereo not shown) [Compound 225, 4-((9-cyclopentyl-7,7-difluoro-5-methyl-6-oxo-6,7,8,9-tetrahydro-5H-pyrimido[4,5-b][1,4]diazepin-2-yl)amino)-N-(17-((2-(2,6-dioxopiperidin-3-yl)-1,3-dioxoisoindolin-4-yl)amino)-3,6,9,12,15-pentaoxaheptadecyl)-5-methoxy-2-(4-methylpiperazin-1-yl)benzamide] | 
+ (+<0.7) | COc1cc(C(=O)NCCOCCNc2cccc3c2C(=O)N(C2CCC(=O)NC2=O)C3=O)c(N2CCN(C)CC2)cc1Nc1ncc2c(n1)N(C1CCCC1)CC(F)(F)C(=O)N2C (stereo not shown) [Compound 221, 4-((9-cyclopentyl-7,7-difluoro-5-methyl-6-oxo-6,7,8,9-tetrahydro-5H-pyrimido[4,5-b][1,4]diazepin-2-yl)amino)-N-(2-(2-((2-(2,6-dioxopiperidin-3-yl)-1,3-dioxoisoindolin-4-yl)amino)ethoxy)ethyl)-5-methoxy-2-(4-methylpiperazin-1-yl)benzamide] | 
++ (++<0.6) | COc1cc(C(=O)NC2CCN(C(=O)CCCC#Cc3cccc4c3C(=O)N(C3CCC(=O)NC3=O)C4=O)CC2)ccc1Nc1ncc2c(n1)N(C1CCCC1)CC(F)(F)C(=O)N2C (stereo not shown) [Compound 180, 4-((9-cyclopentyl-7,7-difluoro-5-methyl-6-oxo-6,7,8,9-tetrahydro-5H-pyrimido[4,5-b][1,4]diazepin-2-yl)amino)-N-(1-(6-(2-(2,6-dioxopiperidin-3-yl)-1,3-dioxoisoindolin-4-yl)hex-5-ynoyl)piperidin-4-yl)-3-methoxybenzamide] | 
